From patent US9868748B2, “Thiazolopyrrolidine inhibitors of ROR- γ” (Vitae Pharmaceuticals, Inc., priority 2013, dated 2018)
Read-outs that look alike come from different tables or passages of the source.

Experiments:
[1] = biological target: recombinant RORγ Ligand Binding Domain (LBD) protein (Homo sapiens (Human), UniProt P51449); experiment: Radio-Ligand RORγ Binding Assay (Assay 1); conditions: competition with 25-hydroxy [26,27-3H]-cholesterol, SPA, read-out: RORγ Binding Ki Range*
Method: Radio-Ligand RORγ Binding Assay (Assay 1)
Compounds of the present invention were tested for ability to bind to RORγ in a cell-free competition assay with commercially available radio-ligand (RL), 25-hydroxy [26,27-^3H]— cholesterol (PerkinElmer, Cat. # NET674250UC), for a ligand binding site on a recombinant RORγ Ligand Binding Domain (LBD) protein expressed as a 6×His-Glutathione-S-Transferase (GST) fusion (“6×His” disclosed as SEQ ID NO: 2). The assay was performed in 96-well SPA plates (PerkinElmer, Cat. #1450-401) in 50 mM HEPES buffer, pH 7.4, containing 150 mM NaCl, 5 mM MgCl2, 10% (v/v) glycerol, 2 mM CHAPS, 0.5 mM β-octylglucopyranoside and 5 mM DTT. Tested compounds were dissolved in DMSO, and semi-log (3.162×) serial dilutions of the compounds were prepared in the same solvent. Two μL of the DMSO solutions were mixed with 28 μL of 8.6 nM 25-hydroxy [26,27-^3H]— cholesterol and 50 μL of 24 nM RORγ LBD. The plate was shaken at 700 rpm for 20 min and incubated for 10 min at rt, after which 40 μL of poly-Lys YSi SPA beads (PerkinElmer, Cat. # RPNQ0010) were added to achieve 50 μg of the beads per well. The plate was incubated on an orbital shaker for 20 min and then for 10 min without agitation at rt. SPA signal for tritium beta radiation was registered on PerkinElmer Microbeta plate reader. Percent inhibition values were calculated based on the high signal obtained with DMSO control and the low signal observed with 10 μM standard RORγ inverse agonist T0901317 (SigmaAldrich, Cat. # T2320). The percent inhibition vs. concentration data were fit into a four-parameter model, and […] values were calculated from the fit as the concentrations corresponding to the inflection points on the dose-response curves. Inhibitory constants (Ki) were calculated using the following equation, where [RL] is the concentration in the assay and KD is a dissociation constant of 25-hydroxy [26,27-^3H]-cholesterol: […]

[2] = biological target: full-length RORγt in Jurkat cells (Homo sapiens (Human), UniProt P51449); experiment: RORγt 5xRORE Assay in Jurkat Cells (Assay 2); format: cell-based; conditions: Nanoluc luciferase reporter, 16-18 hrs
Sequence of full-length RORγt in Jurkat cells (P51449 other isoform, or with tags, fused parts or gaps): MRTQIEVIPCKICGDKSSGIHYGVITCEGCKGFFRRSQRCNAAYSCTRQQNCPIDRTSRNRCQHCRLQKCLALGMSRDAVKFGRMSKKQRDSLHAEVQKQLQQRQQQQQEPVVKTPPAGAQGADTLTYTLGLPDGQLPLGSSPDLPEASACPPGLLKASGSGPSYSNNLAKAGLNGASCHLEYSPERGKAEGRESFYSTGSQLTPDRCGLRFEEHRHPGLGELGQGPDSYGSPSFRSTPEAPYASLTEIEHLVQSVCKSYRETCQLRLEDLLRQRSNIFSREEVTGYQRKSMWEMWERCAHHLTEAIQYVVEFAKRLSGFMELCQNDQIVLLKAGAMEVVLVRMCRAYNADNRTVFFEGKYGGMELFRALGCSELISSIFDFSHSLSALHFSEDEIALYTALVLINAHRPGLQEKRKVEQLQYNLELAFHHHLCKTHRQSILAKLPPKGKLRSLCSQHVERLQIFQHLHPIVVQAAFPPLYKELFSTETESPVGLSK
Method: [formula] RORγt 5xRORE Assay in Jurkat Cells (Assay 2)
Compounds of the present invention were tested for RORγ inverse agonist activity in a cell-based, transcriptional activity assay. Secreted Nanoluc® luciferase was used as a reporter for transcriptional activity of the full-length RORγt in Jurkat cells (ATCC, Cat. # TIB-152). A reporter plasmid was constructed by inserting 5 repeats of the ROR Response Element (RORE) […] (SEQ ID NO:1) into a commercially available promoterless plasmid pNL1.3[secNluc] (Promega, Cat. # N1021) using KpnI and HindIII restriction sites. The expression plasmid for RORγt was purchased (Geneocopoeia, Cat. # EX-T6988-M02). Jurkat cells (30 million cells) were transfected with 11 μg of EX-T6988-MO2 and 26 μg of the reporter plasmid in OptiMEM® media using Lipofectamine® LTX and Plus™ reagents (Life Technologies, Cat. #15338-100). After 5-6 h of incubation at 37° C./5% CO2, the cells were collected, resuspended in phenol-red free RPMI media containing 10% (v/v) delipidated FBS (Hyclone, Cat. # SH30855.03) and dispensed into 96-well clear bottom tissue culture plates (CoStar, Cat. #3603), at 80,000 cells per well. Tested compounds were added to the cells in the same media (final concentration of DMSO was 0.1% (v/v)), and the plates were incubated at 37° C./5% CO2 for 16-18 hrs. Luciferase activity in the conditioned supernatants was determined with NanoGlo® assay reagents (Promega, Cat. # N1130).

[3] = Table 9, read-out: RORγt5X IC50 Range*
[4] = Table 8, read-out: RORγt5X IC50 Range*

Sequence of recombinant RORγ Ligand Binding Domain (LBD) protein (P51449 269-508): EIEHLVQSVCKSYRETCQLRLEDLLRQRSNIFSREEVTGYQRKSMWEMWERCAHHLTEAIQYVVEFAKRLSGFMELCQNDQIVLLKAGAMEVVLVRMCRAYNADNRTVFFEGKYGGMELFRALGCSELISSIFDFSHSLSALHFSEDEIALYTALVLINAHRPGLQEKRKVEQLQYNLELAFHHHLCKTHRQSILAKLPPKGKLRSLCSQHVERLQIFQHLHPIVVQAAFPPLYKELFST

Compound	Ki ([1]; Table 9)	IC50 [2, 3]	Ki ([1]; Table 8)	IC50 [2, 4]
CCS(=O)(=O)c1cnc(CC(=O)Nc2nc3c(s2)CN(Cc2ccc(-c4nnn(C)n4)cc2)[C@H]3C(C)C)nc1	< 100 nM	100 to 1000 nM		
CCS(=O)(=O)c1ccc(CC(=O)Nc2nc3c(s2)CN(Cc2cccc(S(C)(=O)=O)c2)[C@@H]3C(C)C)cc1	100 to 1000 nM	> 1000 nM		
CCS(=O)(=O)c1ccc(CC(=O)Nc2nc3c(s2)CN(Cc2ncc(Cl)cc2F)[C@H]3C(C)C)cc1 [I-A10]			< 100 nM	< 100 nM
CCS(=O)(=O)c1ccc(CC(=O)Nc2nc3c(s2)CN([C@H](C)Cc2ccc(F)cc2)[C@@H]3C(C)C)cc1	< 100 nM	> 1000 nM		
CC[C@H](C)C1c2nc(C(=O)NCc3ccc(S(C)(=O)=O)cc3)sc2CN1Cc1ccc(OC(F)F)cc1 (stereo partly shown)	< 100 nM	100 to 1000 nM		
CCS(=O)(=O)c1ccc(CC(=O)Nc2nc3c(s2)CN([C@H](C)c2ccc(C(F)(F)F)cc2F)[C@H]3C(C)C)cc1 [I-A36]			< 100 nM	< 100 nM
CCS(=O)(=O)c1ccc(CC(=O)Nc2nc3c(s2)CN(Cc2ccc(-c4ccc(=O)n(C)c4)cc2)[C@H]3C(C)C)nc1	< 100 nM	< 100 nM		
CCS(=O)(=O)c1ccc(CC(=O)Nc2nc3c(s2)C(C)N(Cc2ccc(C#N)cc2)[C@H]3C(C)C)cc1 (stereo partly shown)	< 100 nM	100 to 1000 nM		
CC[C@H](C)C1c2nc(NC(=O)Cc3ccc(S(C)(=O)=O)cc3)sc2CN1Cc1ccc(C#N)c(F)c1 (stereo partly shown) [I-H2]			< 100 nM	< 100 nM
CCS(=O)(=O)c1ccc(CC(=O)Nc2nc3c(s2)CN(C[C@H]2CC[C@@](OC)(C(F)(F)F)CC2)[C@H]3C(C)C)nc1 [I-C8]			< 100 nM	< 100 nM
CCS(=O)(=O)c1ccc(CC(=O)Nc2nc3c(s2)CN(Cc2ncc(C(F)(F)F)cn2)[C@H]3C(C)C)cc1 [I-A6]			< 100 nM	< 100 nM
CCS(=O)(=O)c1ccc(CC(=O)Nc2nc3c(s2)CN(Cc2cc(OC(F)(F)F)ccc2F)[C@@H]3C(C)C)cc1	< 100 nM	> 1000 nM		
COc1ccc(CC(=O)Nc2nc3c(s2)CN(Cc2ccc(Cl)cc2)[C@H]3C(C)C)cc1	< 100 nM	> 1000 nM		
CCS(=O)(=O)c1ccc(CC(=O)Nc2nc3c(s2)CN([C@@H](C)Cc2ccccc2C(F)(F)F)[C@@H]3C(C)C)cc1	< 100 nM	> 1000 nM		
CCS(=O)(=O)c1ccc(CNC(=O)c2nc3c(s2)CN(Cc2ccc(C(F)F)cc2)[C@H]3C(C)C)nc1	< 100 nM	< 100 nM		
CCS(=O)(=O)c1ccc(CC(=O)Nc2nc3c(s2)CN(C[C@@H]2CC[C@@H](C(F)(F)F)N(C4CC4)C2)[C@H]3C(C)C)cc1 (single isomer, unassigned)	< 100 nM	> 1000 nM		
CCS(=O)(=O)c1ccc(CC(=O)Nc2nc3c(s2)CN(Cc2cccc(C(F)(F)F)c2)[C@H]3C(C)C)cc1 [I-A8]			< 100 nM	> 1000 nM
CC(C)[C@H]1c2nc(NC(=O)Cc3ccc(S(C)(=O)=O)cc3)sc2CN1[C@@H](C)c1ccc(C#N)cc1 [I-B15]			< 100 nM	< 100 nM
CCS(=O)(=O)c1ccc(CC(=O)Nc2nc3c(s2)CN(C[C@H]2CC[C@@](C)(C#N)CC2)[C@H]3C(C)C)nc1 (single isomer, unassigned)	< 100 nM	100 to 1000 nM		
CCS(=O)(=O)c1ccc(CC(=O)Nc2nc3c(s2)CN(Cc2cnc(C(F)(F)F)nc2)[C@H]3C(C)C)cc1 [I-A58]			< 100 nM	< 100 nM
CCS(=O)(=O)c1ccc(CC(=O)Nc2nc3c(s2)CN(Cc2ccc(C(F)(F)F)cc2)[C@@H]3C(C)C)cc1	< 100 nM	100 to 1000 nM		
CCS(=O)(=O)c1ccc(CC(=O)Nc2nc3c(s2)CN(C[C@H]2CC[C@@](O)(C(F)(F)F)CC2)[C@H]3C(C)C)cc1 (single isomer, unassigned)	< 100 nM	< 100 nM		
CC(C)[C@H]1c2nc(NC(=O)Cc3ccc(S(C)(=O)=O)cc3)sc2CN1[C@H](C)c1ccc(C(F)(F)F)nc1 (single isomer, unassigned)	< 100 nM	< 100 nM		
